According to US20100305303A1, “INHIBITING AGENT FOR INHIBITION OF ANGIOGENESIS, A METHOD FOR PREPARING THE AGENT, A METHOD FOR MODIFYING THE AGENT AND ITS USE FOR MANUFACTURING A MEDICAMENT FOR TREATING TUMOR” (priority 2007, published 2010):
Residues, ends and D or L forms follow the SMILES beside them. No end group written: not given here. *: point of attachment. Palmitoyl = CCCCCCCCCCCCCCCC(=O)*

Key:
[1] = Half-life of polypeptides in plasma at 37° C. (HPLC); assay type: in vitro ADME; settings: 800 μg/ml, 20 μl injected on HPLC
Experimental: Survey on the half-life of polypeptides in plasma at 37° C. after modification. Preparation of blood drug samples: after crude drug (volume V) (800 ug/ml) +1V plasma were mixed and diluted with 2V water evenly, incubated for 0, 5, 30 min at 37° C. respectively, immediately heated at 80° C. for 30 min; the negative control: after 1V plasma were diluted and mixed with 3 V water evenly, and heated for 30 min at 80° C. The positive control group: after 1V crude drug (800 ug/ml) were diluted and mixed evenly with 3V water, heated for 30 min at 80° C. The samples were the modified products, […] at 14000 rpm for 10 min. The supernatant was fetched for HPLC analysis with the injection size of 20 ul.

Bel-7402 tumor cells = assay: Binding of FITC labeled polypeptides to integrin-expressing tumor cells by flow cytometry; design: unit not given here; settings: FITC labeled polypeptide, dosage 1 μg/μl, Bel-7402 cells, 25 min
Experimental: Analysis of the binding of polypeptide s and integrin by flow cytometry. Bel-7402 tumor cells were used, which can express integrin. The cells were cultured in a 24-well plate, and the cells were collected and washed with ice-cold PBS twice. Before labeling, the cells were suspended in PBS +1% BSA, maintained for 30 min, added with 1 μl FITC labeled polypeptide s (P1, P2, P3, P4, P5, P6, P7, P8, P9, P10, P11, P12, P13, P14, P15, P16, RGD and ES-2) for reaction for 25 min. After labeling, the cells were collected and washed twice with PBS, suspended again in 400 μl PBS and analysis was conducted with a flow cytometry (Becton Dickinson, USA). FITC fluorescence was determined at FL1 channel The cells with FITC feature would be further analyzed.

B16F10 melanoma cells = assay: In vivo anti-tumor test, B16F10 melanoma; settings: B16F10 in C57BL/6 mice, 5 mg/kg/d contralateral subcutaneous injection, 9th day
Experimental: The cultured B16F10 melanoma cells were treated with 0.05% trypsin, centrifuged at 1000 rpm for 5 min, suspended again in PBS, inoculated subcutaneously with 0.1 ml of 5×10^5 cells at the body sides of C57BL/6 mice (6-8 weeks). When the average tumor size reached 200 mm3-300 mm3, the mice were randomly divided into two groups, 7 mice for each group, of which, one group of mice were treated with RGD-ED, and the other group were treated with ED not containing RGD, with the doses of 5 mg/kg/d for the two groups, and the control group of mice were subject to PBS injection. The treatment method was contralateral subcutaneous injection of the inoculated tumors.

[2] = tested on: human liver cancer SGC7901; assay: In vivo anti-tumor test, SGC7901 xenograft; settings: SGC7901 in nude mice, 3 mg/kg/d contralateral subcutaneous injection, 10th day
Experimental: (§1) The cultured human liver cancer SGC7901 was treated with 0.05% trypsin, centrifuged at 1000 rpm for 5 min, suspended again in PBS, inoculated subcutaneously with 0.1 ml of 5×10^5 cells on the body sides of nude mice (6-8 weeks). When the average tumor size reached 100 mm^3-200 mm^3, the mice were randomly divided into three groups, 7 mice for each group, of which, one group of mice were treated with RGD-ED, one group were treated with RGD-ED modified with liposome, and the third group were treated with RGD-ED modified with polyethylene glycol, with the doses of 3 mg/kg/d for the three groups, and the control group of mice were subject to PBS injection. The treatment method was contralateral subcutaneous injection of the inoculated tumors.
as §1, with “with liposome-modified RGD-ED,” for “with RGD-ED modified with liposome,”, “with” for “with RGD-ED modified with”, “polyethylene glycol-modified RGD-ED,” for “polyethylene glycol,”, “injection. […]” for “injection. The treatment method was contralateral subcutaneous injection of the inoculated tumors.”

NIH 3T3 cells = assay: Cell proliferation analysis on non-endothelial cells; assay type: cell-based; settings: non-endothelial NIH 3T3 cells, 48 h
Experimental: The culture of BCE cells and NIH 3T3 cells, method: the culture solution DMEM contained 10% inactivated calf serum (BCS), 1% antibiotics and 3 ng/ml bFGF. Cell proliferation analysis method is as follows: washed the cells with PBS, digested with trypsin, added with culture solution suspension cells and centrifuged and collected cells, and regulated the cell concentrations to 25,000 cells/ml. The cells were moved to 6-well plates (0.5 ml/well) and cultured for 24 h. Replaced the culture medium as 1 ml DMEM, 5% BCS, 1% antibiotics, 1 ng/ml bFGF. Different doses of samples were added to each hole, and further cultured for 48 h, digested the cells with trypsase, re-suspended in PBS, fixed with 70% ice-cold ethanol and stained with 7-AAD, and then conducted analysis with flow cytometry.

CAMs = assay: CAM analysis of anti-angiogenic activity; assay type: in vivo, chick
Experimental: To detect the in vivo anti-angiogenic activity, CAM analysis was carried out. All the tests were carried out on the ultra-clean platform under sterile conditions. The 6-day disinfected chick embryos were cultured under the condition of 37° C., 90% humidity. After 2 days, the top of each egg was punched and the reagents were dripped into the sterile Whatman filter paper, then put on the CAMs vascular clustered area, cultivated for 48 hours, and observed the chick embryos and CAMs and took pictures.

Compound	Binding Value (Bel-7402 tumor cells)	further results
CCCCCCCCCCCCCCCC(=O)N[C@@H](CCCNC(=N)N)C(=O)NCC(=O)N[C@@H](CC(=O)O)C(=O)NCC(=O)NCC(=O)NCC(=O)NCC(=O)N[C@H](C(=O)N[C@H](C(=O)N[C@@H](CCCNC(=N)N)C(=O)N[C@@H](CCCNC(=N)N)C(=O)N[C@@H](C)C(=O)N[C@@H](CC(=O)O)C(=O)N[C@@H](CCCNC(=N)N)C(=O)N[C@@H](C)C(=O)N[C@@H](C)C(=O)N[C@H](C(=O)N1CCC[C@H]1C(=O)O)C(C)C)C(C)C)[C@@H](C)CC [Palmitic acid-modified substance] (Palmitoyl-RGDGGGGIVRRADRAAVP-OH; C-terminus assumed)		half-life [1]: 12 min
ACDCRGDCFCIVRRADRAAVP (cysteine pairing not given here) [P10]	63.28	
ACDCRGDCFCIVRRADRAAVPACDCRGDCFC (cysteine pairing not given here) [P13]	59.25	
Ala-Cys-Asp-Cys-Arg-Gly-Asp-Cys-Phe-Cys-Ile-Val-Arg-Arg-Ala-Asp-Arg-Ala-Ala-Val-Pro-linker-Ala-Cys-Asp-Cys-Arg-Gly-Asp-Cys-Phe-Cys [P15]	64.11	
Ala-Cys-Asp-Cys-Arg-Gly-Asp-Cys-Phe-Cys-linker-Ile-Val-Arg-Arg-Ala-Asp-Arg-Ala-Ala-Val-Pro [P9]	66.04	
Ala-Cys-Asp-Cys-Arg-Gly-Asp-Cys-Phe-Cys-linker-Ile-Val-Arg-Arg-Ala-Asp-Arg-Ala-Ala-Val-Pro-Ala-Cys-Asp-Cys-Arg-Gly-Asp-Cys-Phe-Cys [P14]	58.32	
Ala-Cys-Asp-Cys-Arg-Gly-Asp-Cys-Phe-Cys-linker-Ile-Val-Arg-Arg-Ala-Asp-Arg-Ala-Ala-Val-Pro-linker-Ala-Cys-Asp-Cys-Arg-Gly-Asp-Cys-Phe-Cys [P16]	66.12	
Arg-Gly-Asp-Ile-Val-Arg-Arg-Ala-Asp-Arg-Ala-Ala-Val-Pro-linker-Arg-Gly-Asp [P7]	60.25	
Arg-Gly-Asp-linker-Ile-Val-Arg-Arg-Ala-Asp-Arg-Ala-Ala-Val-Pro-Arg-Gly-Asp [P8]	58.30	
Arg-Gly-Asp-linker-Ile-Val-Arg-Arg-Ala-Asp-Arg-Ala-Ala-Val-Pro-linker-Arg-Gly-Asp [P6]	60.27	
IVRRADRAAVP [ED, reference compound]	18.35	tumor inhibition rate (B16F10 melanoma cells): 28%
IVRRADRAAVPACDCRGDCFC (cysteine pairing not given here) [P12]	67.28	
IVRRADRAAVPRGD [P4]	60.13	
Ile-Val-Arg-Arg-Ala-Asp-Arg-Ala-Ala-Val-Pro-linker-Ala-Cys-Asp-Cys-Arg-Gly-Asp-Cys-Phe-Cys [P11]	60.20	
Ile-Val-Arg-Arg-Ala-Asp-Arg-Ala-Ala-Val-Pro-linker-Arg-Gly-Asp [P3]	58.96	
RGDGGGGIVRRADRAAVP [P1]	63.21	half-life [1]: 7 min
RGDIVRRADRAAVP [P2]	62.15	
RGDIVRRADRAAVPRGD [P5]	59.40	
arginine-glycine-aspartic acid [RGD, reference compound]	59.45	
designed angiogenesis inhibitor: ED polypeptide joined to a sequence containing Arg-Gly-Asp, expressed recombinantly in E. coli; exact sequence not stated [RGD-ED]		tumor inhibition rate (B16F10 melanoma cells): 58%; tumor inhibition rate [2]: 68%; inhibitory effect on NIH 3T3 cell proliferation (NIH 3T3 cells): no inhibitory effect; inhibition of neovascularization and angiogenesis in CAM (CAMs; 0.05 μg, 0.1 μg and 0.2 μg, 48 hours): significantly inhibit; chick embryo death in CAM test (CAMs; 0.5 μg): cause chick embryo death; inhibition of angiogenesis in CAM (CAMs; 0.5 μg, 48 hours): completely inhibit
